Measurements reported in patent US8158810B2 (Gilead Sciences, Inc., priority 2006, dated 2012).

Target: T1, hMAO-A (Homo sapiens, UniProt P21397)
T1 construct: purchased Sigma M7316
T1 sequence (P21397 1-527): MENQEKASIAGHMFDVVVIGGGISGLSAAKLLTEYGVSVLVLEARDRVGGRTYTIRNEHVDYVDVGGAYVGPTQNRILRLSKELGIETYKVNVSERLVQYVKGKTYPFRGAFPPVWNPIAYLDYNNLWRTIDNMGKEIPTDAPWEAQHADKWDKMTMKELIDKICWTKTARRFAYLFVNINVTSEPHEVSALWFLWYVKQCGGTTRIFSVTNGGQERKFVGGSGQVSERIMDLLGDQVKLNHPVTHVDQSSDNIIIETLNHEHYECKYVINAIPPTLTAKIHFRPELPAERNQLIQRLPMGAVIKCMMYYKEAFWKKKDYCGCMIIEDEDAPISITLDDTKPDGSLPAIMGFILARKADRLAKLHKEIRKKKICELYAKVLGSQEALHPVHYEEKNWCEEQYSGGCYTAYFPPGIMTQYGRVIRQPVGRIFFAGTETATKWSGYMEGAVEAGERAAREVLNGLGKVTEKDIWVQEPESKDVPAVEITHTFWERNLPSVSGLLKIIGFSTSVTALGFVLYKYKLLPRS
Test: MAO-A inhibition assay
Format: biochemical
Settings: No = no inhibition; for hMAO-A inhibition up to 10 μM: printed in the IC50 hMAO-A column
Protocol: MAO-A (Sigma M7316) and MAO-B (Sigma M7441) inhibition assays were conducted in 96-well micro-plates according to the method described by Zhou et al. [Analytical Biochemistry 253, 169-174, 1997]. […] Reactions were initiated by the addition of a pre-mixed solution of tyramine, horseradish peroxidase and Amplex Red, and were allowed to proceed at 37° C. for 30 min. Enzyme activities were determined by measuring absorbance at 570 nm (SpectralMax Plate reader), absorbance of oxidized Amplex Red generated by this horseradish peroxidase-coupled reaction. Nonspecifically formed products were determined in the presence of 2 and 10 µM clorgyline and deprenyl for MAO-A and MAO-B, respectively. IC50 values were determined by fitting concentration-inhibition data to sigmoidal dose-response curves with two-floating parameters: IC50 and Hill coefficient.

Row | SMILES | hMAO-A inhibition up to 10 μM | hMAO-A inhibition up to 30 μM (up to 30 μM)
1 | O=c1c(-c2ccc(O)cc2)coc2cc(OCc3ccccn3)ccc12 [PT-91, 3-(4-hydroxyphenyl)-7-(2-pyridylmethoxy)chromen-4-one] | No | –
2 | O=c1c(-c2ccc(O)cc2)coc2cc(OCc3nnc(-c4cccc(C(F)(F)F)c4)o3)ccc12 [PT-60, 3-(4-hydroxyphenyl)-7-({5-[3-(trifluoromethyl)phenyl](1,3,4-oxadiazol-2-yl)}methoxy)chromen-4-one] | No | –
3 | O=c1c(-c2ccc(O)cc2)coc2cc(OCc3nnc(-c4ccc(F)cc4)o3)ccc12 [PT-81, 7-{[5-(4-fluorophenyl)(1,3,4-oxadiazol-2-yl)]methoxy}-3-(4-hydroxyphenyl)chromen-4-one] | No | –
4 | O=c1c(-c2ccc(O)cc2)coc2cc(OCc3cc(-c4cccc(C(F)(F)F)c4)on3)ccc12 [PT-45, 3-(4-hydroxyphenyl)-7-({5-[3-(trifluoromethyl)phenyl]isoxazol-3-yl}methoxy)chromen-4-one] | No | –
5 | N#Cc1ccc(-c2coc3cc(OCc4nnc(-c5cc(F)cc(C(F)(F)F)c5)o4)ccc3c2=O)cc1 [PT-68, 4-[7-({5-[5-fluoro-3-(trifluoromethyl)phenyl](1,3,4-oxadiazol-2-yl)}methoxy)-4-oxochromen-3-yl]benzenecarbonitrile] | No | –
6 | O=c1c(-c2ccc(O)cc2)coc2cc(OCc3ccncc3)ccc12 [PT-82, 3-(4-hydxoxyphenyl)-7-(4-pyridylmethoxy)chromen-4-one] | No | –
7 | CS(=O)(=O)Nc1ccc(-c2c(O)oc3cc(OCc4cccc(C(=O)O)c4)ccc3c2=O)cc1 [PT-111, 3-[(2-hydroxy-3-{4-[(methylsulfonyl)amino]phenyl}-4-oxochromen-7-yloxy)methyl]-benzoic acid] | No | –
8 | O=c1c(-c2ccc(O)cc2)coc2cc(OCCc3ccccc3)ccc12 [PT-87, 3-(4-hydroxyphenyl)-7-(2-phenylethoxy)chromen-4-one] | No | –
9 | O=C(O)c1coc(COc2ccc3c(=O)c(-c4ccc(O)cc4)coc3c2)n1 [PT-102, 2-{[3-(4-hydroxyphenyl)-4-oxochromen-7-yloxy]methyl}-1,3-oxazole-4-carboxylic acid] | No | –
10 | COC(=O)c1cccc(COc2ccc3c(=O)c(-c4ccc(O)cc4)coc3c2)c1 [PT-33, methyl 3-{[3-(4-hydroxyphenyl)-4-oxochromen-7-yloxy]methyl}benzoate] | – | No
11 | O=c1c(-c2ccc(O)cc2)coc2cc(OC[C@H](O)Cc3ccccc3)ccc12 [PT-109, 7-((2R)-2-hydroxy-3-phenylpropoxy)-3-(4-hydroxyphenyl)chromen-4-one] | 26% | –
12 | CS(=O)(=O)Nc1ccc(-c2coc3cc(OCc4noc(-c5cc(F)cc(C(F)(F)F)c5)n4)ccc3c2=O)cc1 [PT-70, 7-({5-[3-fluoro-5-(trifluoromethyl)phenyl](1,2,4-oxadiazol-3-yl)}methoxy)-3-{4-[(methylsulfonyl)amino]phenyl}chromen-4-one] | No | –
13 | C[C@@H](NCC(=O)COc1ccc2c(=O)c(-c3ccc(O)cc3)coc2c1)c1ccc(F)cc1 [PT-56, 7-(3-{[(1R)-1-(4-fluorophenyl)ethyl]amino}-2-oxopropoxy)-3-(4-hydroxyphenyl)chromen-4-one] | 36% | –
14 | N#Cc1ccc(-c2coc3cc(OCc4cc(-c5cccc(C(F)(F)F)c5)no4)ccc3c2=O)cc1 [PT-69, 4-[4-oxo-7-({3-[3-(trifluoromethyl)phenyl]isoxazol-5-yl}methoxy)chromen-3-yl]benzenecarbonitrile] | No | –
15 | O=c1c(-c2ccc(O)cc2)coc2cc(OCc3nnc(-c4cc(F)cc(C(F)(F)F)c4)o3)ccc12 [PT-74, 7-({5-[3-fluoro-5-(trifluoromethyl)phenyl](1,3,4-oxadiazol-2-yl)}methoxy)-3-(4-hydroxyphenyl)chromen-4-one] | No | –
16 | CS(=O)(=O)c1ccc(-c2coc3cc(OCc4noc(-c5cc(F)cc(C(F)(F)F)c5)n4)ccc3c2=O)cc1 [PT-71, 7-({5-[3-fluoro-5-(trifluoromethyl)phenyl](1,2,4-oxadiazol-3-yl)}methoxy)-3-[4-(methylsulfonyl)phenyl]chromen-4-one] | No | –

Row | SMILES | hMAO-A inhibition up to 10 μM | hMAO-A inhibition up to 30 μM (up to 30 μM)
17 | COc1ccc(-c2coc3cc(OCc4sc(-c5ccc(C(F)(F)F)cc5)nc4C)ccc3c2=O)cn1 [PT-67, 3-(6-methoxy(3-pyridyl))-7-({4-methyl-2-[4-(trifluoromethyl)phenyl](1,3-thiazol-5-yl)}methoxy)chromen-4-one] | No | –
18 | O=c1c(-c2ccc(O)cc2)coc2cc(OCCNCc3cccc(C(F)(F)F)c3)ccc12 [PT-99, 3-(4-hydroxyphenyl)-7-[2-({[3-(trifluoromethyl)phenyl]methyl}amino)ethoxy]chromen-4-one] | No | –
19 | COC(=O)c1coc(COc2ccc3c(=O)c(-c4ccc(O)cc4)coc3c2)n1 [PT-101, methyl 2-{[3-(4-hydroxyphenyl)-4-oxochromen-7-yloxy]methyl}-1,3-oxazole-4-carboxylate] | No | –
20 | O=c1c(-c2ccc(O)cc2)coc2cc(OC[C@H](O)CNCc3cccc(C(F)(F)F)c3)ccc12 [PT-53, 7-[(2R)-2-hydroxy-3-({[3-(trifluoromethyl)phenyl]methyl}amino)propoxy]-3-(4-hydroxyphenyl)chromen-4-one] | No | –
21 | Cc1nc(-c2ccc(C(F)(F)F)cc2)sc1COc1ccc2c(=O)c(-c3ccc(NS(C)(=O)=O)cc3)coc2c1 [PT-66, 3-{4-[(methylsulfonyl)amino]phenyl}-7-({4-methyl-2-[4-(trifluoromethyl)phenyl](1,3-thiazol-5-yl)}methoxy)chromen-4-one] | No | –
22 | O=C(COc1ccc2c(=O)c(-c3ccc(O)cc3)coc2c1)Nc1ccccc1C(F)(F)F [PT-84, 2-[3-(4-hydroxyphenyl)-4-oxochromen-7-yloxy]-N-[2-(trifluoromethyl)phenyl]-acetamide] | No | –
23 | O=c1c(-c2ccc(O)cc2)coc2cc(OCc3nnc(-c4cccc(F)c4)o3)ccc12 [PT-58, 7-{[5-(3-fluorophenyl)(1,3,4-oxadiazol-2-yl)]methoxy}-3-(4-hydroxyphenyl)chromen-4-one] | No | –
24 | C[C@@H](NC(=O)COc1ccc2c(=O)c(-c3ccc(O)cc3)coc2c1)c1ccc(F)cc1 [PT-90, N-[(1R)-1-(4-fluorophenyl)ethyl]-2-[3-(4-hydroxyphenyl)-4-oxochromen-7-yloxy]acetamide] | No | –
25 | C[C@H](NC(=O)COc1ccc2c(=O)c(-c3ccc(O)cc3)coc2c1)c1ccc(F)cc1 [PT-103, N-[(1S)-1-(4-fluorophenyl)ethyl]-2-[3-(4-hydroxyphenyl)-4-oxochromen-7-yloxy]acetamide] | 36% | –
26 | O=c1c(-c2ccc(O)cc2)coc2cc(OC[C@H](O)CNCc3cc(F)cc(F)c3)ccc12 [PT-55, 7-((2R)-3-{[(3,5-difluorophenyl)methyl]amino}-2-hydroxypropoxy)-3-(4-hydroxyphenyl)chromen-4-one] | No | –
27 | O=c1c(-c2ccc(O)cc2)coc2cc(OCCOc3ccc(Cl)cc3)ccc12 [PT-89, 7-[2-(4-chlorophenoxy)ethoxy]-3-(4-hydroxyphenyl)chromen-4-one] | 34% | –
28 | Cc1nc(-c2ccc(C(F)(F)F)cc2)sc1COc1ccc2c(=O)c(-c3ccc(C#N)cc3)coc2c1 [PT-65, 4-[7-({4-methyl-2-[4-(trifluoromethyl)phenyl](1,3-thiazol-5-yl)}methoxy)-4-oxochromen-3-yl]benzenecarbonitrile] | No | –
29 | COC(=O)c1cnc(COc2ccc3c(=O)c(-c4ccc(O)cc4)coc3c2)o1 [PT-47, methyl 2-{[3-(4-hydroxyphenyl)-4-oxochromen-7-yloxy]methyl}-1,3-oxazole-5-carboxylate] | No | –
30 | O=c1c(-c2ccc(O)cc2)coc2cc(OCCCc3ccccc3)ccc12 [PT-57, 3-(4-hydroxyphenyl)-7-(3-phenylpropoxy)chromen-4-one] | No | –
31 | O=c1c(-c2ccc(O)cc2)coc2cc(OCNCc3cccc(C(F)(F)F)c3)ccc12 [PT-54, 3-(4-hydroxyphenyl)-7-[({[3-(trifluoromethyl)phenyl]methyl}amino)methoxy]chromen-4-one] | No | –
